Entries after “also recorded” stand apart in the source; their conditions may differ.
What was measured:
[1] = test system: EGFP reporter vectors under the transcriptional control of the ribosomal protein RPS30, RPS23I-M, or RPS30I-M1 sequences; assay: EGFP reporter under ribosomal protein promoters with control stable 3′UTR, treated with inducers (FIG. 1B); assay type: cell-based, human; settings: HEK293 cells, okadaic acid 100 nM or TNF-α 10 ng/ml, added about 20 hr after transfection
Procedure: (§1) B HEK293 cells in 96-well plates were transfected with 150 ng of EGFP reporter vectors that are under the transcriptional control of the ribosomal protein RPS30, RPS23I-M, or RPS30I-M1 sequences. The EGFP reporter contains control stable 3′UTR. After approximately 20 hr, the cells were treated with the following compounds: okadaic acid (100 nM) or TNF-α (10 ng/ml) to induce post-transcriptional induction, if any. High resolution images were obtained automatically by BD high-content imager. Quantitation was performed with our in-house ProXcell imaging algorithm.

[2] = test system: RPS30I-M1-IL-8 3′UTR reporter; assay: RPS30I-M1 EGFP reporter with IL-8 3′UTR (AU-rich elements), post-transcriptional induction (FIG. 3); assay type: cell-based, human; settings: HEK293 cells, 3′UTR with 200 bases of IL-8 3′UTR; okadaic acid 100 nM
Procedure: as §1, with “Selective for post-transcriptional regulation in the RPS30I-M linked-reporter system. HEK293” for “B HEK293”, “protein RPS30I-M1.” for “protein RPS30, RPS23I-M, or RPS30I-M1 sequences.”, “contains either” for “contains”, “stable 3′UTR or 3′UTR which contain 200 bases of IL-8 3′UTR sequences known to contain mRNA destabilization elements, AU-rich elements.” for “stable 3′UTR.”, “or IL-α (3” for “or TNF-α (10”
The AU-rich regions, approximately 200 bases, of TNF-α and IL-8 3′UTR were cloned into the vector. Briefly, a 237 bp region (972-1209 nt: NM_000584, SEQ ID NO. 9) that belongs to the 1250 bp IL-8 3′UTR or 250 bases from TNF-α 3′UTR: (1200-1450 bp, NM_000594, SEQ ID NO. 10) were amplified by RT-PCR using specific primers that contains BamH1 and XbaI restriction sites. The PCR products were cut by BamH I and Xba I sequentially and followed by phenol extraction and ethanol precipitation. The purified cut PCR products were ligated into the EGFP expression vector that has bovine growth hormone 3′UTR that has BamH1 and XbaI sites. […]

[3] = test system: control RPS30-3′UTR reporter; assay: RPS30I-M1 EGFP reporter with control stable 3′UTR, post-transcriptional induction (FIG. 3); assay type: cell-based, human; settings: HEK293 cells, okadaic acid 100 nM
Procedure: as §1, with “Selective for post-transcriptional regulation in the RPS30I-M linked-reporter system. HEK293” for “B HEK293”, “protein RPS30I-M1.” for “protein RPS30, RPS23I-M, or RPS30I-M1 sequences.”, “contains either” for “contains”, “stable 3′UTR or 3′UTR which contain 200 bases of IL-8 3′UTR sequences known to contain mRNA destabilization elements, AU-rich elements.” for “stable 3′UTR.”, “or IL-α (3” for “or TNF-α (10”
The RPS30I-M1 with control 3′UTR, RPS30I-M1 with IL-8 3′UTR, and RPS30I-M1 with TNF-α 3′UTR vectors were tested for use to assess post-transcriptional regulation. Transfected cells were stimulated with the following compounds, IL-α or okadaic acid. Any compound or modulators such as protein, expression vector, or small inhibitory RNA, or any other RNA vector can be tested for the post-transcriptional effects, i.e., induction or repression.

[4] = test system: EGFP reporter vector under the transcriptional control of the SV40 promoter; assay: EGFP reporter under SV40 promoter, treated with inducers (FIG. 2); assay type: cell-based; settings: HEK293 cells, TNF-α 10 ng/ml
Procedure: as §1, with “HEK293” for “B HEK293”, “CMV” for “ribosomal protein RPS30, RPS23I-M,”, “SV40 promoter.” for “RPS30I-M1 sequences. The EGFP reporter contains control stable 3′UTR.”, “induction,” for “induction, if any.”, “with” for “with our in-house”

[5] = test system: EGFP reporter vector under the transcriptional control of the CMV promoter; assay: EGFP reporter under CMV promoter, treated with inducers (FIG. 2); assay type: cell-based; settings: HEK293 cells, TNF-α 10 ng/ml
Procedure: as §1, with “HEK293” for “B HEK293”, “CMV” for “ribosomal protein RPS30, RPS23I-M,”, “SV40 promoter.” for “RPS30I-M1 sequences. The EGFP reporter contains control stable 3′UTR.”, “induction,” for “induction, if any.”, “with” for “with our in-house”

| Molecule | induction of EGFP reporter fluorescence [1] | induction of EGFP reporter fluorescence ([1]; listed as okdadaic acid) | post-transcriptional induction of EGFP reporter [2] | post-transcriptional induction of EGFP reporter [3] | transcriptional induction of EGFP reporter [4] | transcriptional induction of EGFP reporter [5] |
| --- | --- | --- | --- | --- | --- | --- |
| C=C1[C@@H](O)[C@@H]2O[C@]3(CC[C@H](/C=C/[C@@H](C)[C@@H]4CC(C)=C[C@@]5(O[C@H](C[C@@](C)(O)C(=O)O)CC[C@H]5O)O4)O3)CC[C@H]2O[C@@H]1[C@@H](O)C[C@H](C)[C@H]1O[C@@]2(CCCCO2)CC[C@H]1C [okadaic acid] | not transcriptionally inducible | no induction | significantly increases | not | – | – |
| TNF-α | no induction; also recorded: not transcriptionally inducible | – | – | – | respond to transcriptional induction | respond to transcriptional induction |
